Legend:
serum half-life = assay type: in vivo; settings: in words; compared with ceftriaxone
[1] = system: Bacteroides fragilis VP1 8908; assay: MIC of ceftriaxone, alone and with compound of formula (I); assay type: cell-based
[2] = in vivo; cited from earlier work
Enterobacter cloacae P99 = assay: MIC of ceftriaxone, alone and with compound of formula (I); assay type: cell-based
Klebsiella pneumoniae 4 = assay: as above; assay type: cell-based
Bacteroides fragilis = settings: coadministration with tazobactam; J. Antimicrobial Chemotherapy (1993), 32, 307-312; cited from earlier work
various microorganisms = assay: enhancement of antibacterial activity of ceftriaxone by compound of formula (I) (MIC data overall); assay type: cell-based; settings: with 1 μg/ml compound of formula (I); from β-lactamase inhibitory effect
[3] = ceftriaxone + 1 μg/1 ml of compound of Formula (I)

SMILES | serum half life (serum half-life) | MIC ([1]; VP18908, ceftriaxone alone) [µg/mL] | MIC + 1 μg/1 ml of compound of Formula (I) [1, 3] [µg/mL] | serum half-lives [2] | MIC + 1 μg/1 ml of compound of Formula (I) (Enterobacter cloacae P99; Enterobacter cloacae P99, ceftriaxone + 1 μg/1 ml of compound of Formula (I)) [µg/mL] | MIC (Enterobacter cloacae P99; Enterobacter cloacae, P99, read-out: MIC Ceftriaxone alone) [µg/mL] | MIC + 1 μg/1 ml of compound of Formula (I) (Klebsiella pneumoniae 4; [3]) [µg/mL] | MIC (Klebsiella pneumoniae 4; ceftriaxone alone) [µg/mL] | activity of ceftriaxone against anaerobes such as Bacteroides fragilis (Bacteroides fragilis) | enhancement of antibacterial activity of ceftriaxone (various microorganisms)
O=C([O-])C1=CS[C@@H]2/C(=C\c3cn4c(n3)SCC4)C(=O)N12.[Na+] (racemic) | more compatible with ceftriaxone |  |  |  |  |  |  |  |  | 
CO/N=C(\C(=O)N[C@@H]1C(=O)N2C(C(=O)O)=C(CSc3nc(=O)c(=O)[nH]n3C)CS[C@H]12)c1csc(N)n1 [Ceftriaxone, [6R-[6α,7β(Z)]]-7-[[(2-Amino4-thiazolyl)(methoxyimino)acetyl]amino]-8-oxo-3-[[(1,2,5,6-tetrahydro-2-methyl-5-6-dioxo-1,2,4-triazin-3-yl)thio]-methyl]-5-thia-1-azabicyclo[4-2-O]oct-2-ene-2-carboxylic acid] |  | 128 | 2 | ca. 8 hours | 0.5 | 128 | 0.5 | 16 | enhanced by coadministration with the β-lactamaseinhibitor tazobactam | substantial enhancement of antibacterial activity
C[C@]1(Cn2ccnn2)[C@H](C(=O)O)N2C(=O)C[C@H]2S1(=O)=O [tazobactam] |  |  |  | ca. 1 hours |  |  |  |  |  | 
